Test results taken from ChEMBL document CHEMBL1135841, “Use of parallel-synthesis combinatorial libraries for rapid identification of potent FKBP12 inhibitors” (Bioorg Med Chem Lett, 2002).

Target: Peptidyl-prolyl cis-trans isomerase FKBP1A (Homo sapiens, UniProt P62942)
Test: Inhibition of peptidyl-prolyl isomerase (PPIase, or rotamase) activity of FK506 binding protein 12

Peptidyl-prolyl cis-trans isomerase FKBP1A, sequence (P62942 whole entry): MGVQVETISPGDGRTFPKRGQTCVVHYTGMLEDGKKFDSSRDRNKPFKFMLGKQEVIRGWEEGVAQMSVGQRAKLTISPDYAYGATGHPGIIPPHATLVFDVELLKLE

Ki | Compound
1000 nM | O=C(OCCCc1ccccc1)[C@@H]1CCCN1C(=O)NC12C[C@H]3C[C@@H](C1)C[C@@H](C2)C3
260 nM | COc1ccc(CCCOC(=O)C2CCCCN2S(=O)(=O)c2ccccc2)cc1 (stereo not given)
32 nM | COc1ccc(CCCOC(=O)C2CCCCN2C(=O)NC23CC4CC(CC(C4)C2)C3)cc1OC (stereo not given)
22 nM | COc1ccc(CCCOC(=O)[C@@H]2CCCN2S(=O)(=O)Cc2ccccc2)cc1
400 nM | COc1cc(CCCOC(=O)C2CCCCN2S(=O)(=O)c2ccc(C)cc2)cc(OC)c1 (stereo not given)
180 nM | COc1ccc(CCCOC(=O)C2CCCCN2S(=O)(=O)c2ccccc2)cc1OC (stereo not given)
4400 nM | Cc1ccc(S(=O)(=O)N2CCCCC2C(=O)OCCCc2ccc(Cl)cc2)cc1 (stereo not given)
47000 nM | O=C(OCCc1ccccc1)[C@@H]1CCCN1C(=S)NC12C[C@H]3C[C@@H](C1)C[C@@H](C2)C3
92 nM | COc1ccc(CCCOC(=O)C2CCCCN2S(=O)(=O)Cc2ccccc2)cc1 (stereo not given)
850 nM | O=C(OCCCc1ccc(F)cc1)[C@@H]1CCCN1/C(S)=N/C12C[C@H]3C[C@@H](C1)C[C@@H](C2)C3
470 nM | O=C(OCCCCc1ccccc1)[C@@H]1CCCN1C(=O)NC12C[C@H]3C[C@@H](C1)C[C@@H](C2)C3
2700 nM | O=C(OCCCc1ccc(Br)cc1)C1CCCCN1S(=O)(=O)Cc1ccccc1 (stereo not given)
320 nM | O=C(OCCCc1ccc(F)cc1)C1CCCCN1S(=O)(=O)Cc1ccccc1 (stereo not given)
1400 nM | Cc1ccc(S(=O)(=O)N2CCCCC2C(=O)OCCCc2ccc(F)cc2)cc1 (stereo not given)
1300 nM | O=C(OCCc1ccccc1)[C@@H]1CCCN1C(=O)NC12C[C@H]3C[C@@H](C1)C[C@@H](C2)C3
3100 nM | O=C(OCCCc1ccc(Br)cc1)[C@@H]1CCCN1C(=O)NC12C[C@H]3C[C@@H](C1)C[C@@H](C2)C3
820 nM | O=C(OCCCc1ccccc1)[C@@H]1CCCN1C(=O)Nc1ccccc1
1500 nM | O=C(OCCCc1ccc(Cl)cc1)[C@@H]1CCCN1C(=S)NC12C[C@H]3C[C@@H](C1)C[C@@H](C2)C3
420 nM | O=C(OCCCc1ccc(Cl)cc1)C1CCCCN1S(=O)(=O)Cc1ccccc1 (stereo not given)
> 10000 nM | C[C@@H](NC(=O)N1CCC[C@H]1C(=O)OCCCc1ccc(Br)cc1)c1ccccc1

Ki | Compound
120 nM | COc1cc(CCCOC(=O)C2CCCCN2S(=O)(=O)Cc2ccccc2)cc(OC)c1 (stereo not given)
86 nM | COc1ccc(CCCOC(=O)[C@@H]2CCCN2/C(S)=N/C2CCCCC2)cc1OC
6000 nM | C[C@@H](NC(=O)N1CCC[C@H]1C(=O)OCCCc1ccc(Cl)cc1)c1ccccc1
24000 nM | O=C(OCc1ccccc1)[C@@H]1CCCN1C(=O)Nc1ccccc1
220 nM | COc1ccc(CCCOC(=O)C2CCCCN2S(=O)(=O)c2ccc(C)cc2)cc1 (stereo not given)
6300 nM | O=C(OCCCc1ccc(Br)cc1)[C@@H]1CCCN1C(=S)NC12C[C@H]3C[C@@H](C1)C[C@@H](C2)C3
3800 nM | O=C(OCCCc1ccc(Cl)cc1)C1CCCCN1S(=O)(=O)c1ccccc1 (stereo not given)
2100 nM | O=C(OCc1ccccc1)[C@@H]1CCCN1C(=O)NC12C[C@H]3C[C@@H](C1)C[C@@H](C2)C3
4400 nM | C[C@@H](NC(=O)N1CCC[C@H]1C(=O)OCCCc1ccc(F)cc1)c1ccccc1
1300 nM | O=C(OCCc1ccccc1)[C@@H]1CCCN1C(=O)Nc1ccccc1
5200 nM | O=C(OCCCc1ccccc1)[C@@H]1CCCN1C(=S)NC12C[C@H]3C[C@@H](C1)C[C@@H](C2)C3
740 nM | O=C(OCCCc1ccc(F)cc1)C1CCCCN1S(=O)(=O)c1ccccc1 (stereo not given)
7200 nM | O=C(OCCCCc1ccccc1)[C@@H]1CCCN1C(=S)NC12C[C@H]3C[C@@H](C1)C[C@@H](C2)C3
18000 nM | O=C(OCc1ccccc1)[C@@H]1CCCN1C(=S)NC12C[C@H]3C[C@@H](C1)C[C@@H](C2)C3
47 nM | COc1ccc(CCCOC(=O)C2CCCCN2S(=O)(=O)Cc2ccccc2)cc1OC (stereo not given)
1200 nM | O=C(OCCCc1ccc(F)cc1)[C@@H]1CCCN1C(=O)NC12C[C@H]3C[C@@H](C1)C[C@@H](C2)C3
2300 nM | O=C(OCCCc1ccc(Cl)cc1)[C@@H]1CCCN1C(=O)NC12C[C@H]3C[C@@H](C1)C[C@@H](C2)C3
8000 nM | O=C(OCCCc1ccc(Br)cc1)C1CCCCN1S(=O)(=O)c1ccccc1 (stereo not given)
12 nM | COc1ccc(CCCOC(=O)C2CCCCN2C(=O)NC23CC4CC(CC(C4)C2)C3)c(OC)c1 (stereo not given)
480 nM | COc1cc(CCCOC(=O)C2CCCCN2S(=O)(=O)c2ccccc2)cc(OC)c1 (stereo not given)
